# Measured values taken from PubChem BioAssay AID248 (DTP/NCI, 2004).
# Several values for one entry are separate records, joined by “and”; a condition that tells them apart may be missing. Equal values may be shown once. Inconclusive results and toxic doses are left out.
# Test system: L1210 leukemia ip in BDF1 mice, survival T/C
# Assay: NCI In Vivo Anticancer Drug Screen. Data for tumor model L1210 Leukemia (intraperitoneal) in B6D2F1 (BDF1) mice
# Details: endpoint: mean survival time, higher = longer survival
# How it was run: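 Survival endpoint. Drug-treated group vs vehicle group, expressed as T divided by C. Tumor passaged by transplantation.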
# [1] = dose: 75.0 mg/kg/injection, schedule: Q01DX001 (ip), vehicle: saline
# [2] = dose: 25.0 mg/kg/injection, schedule: Q04DX003 (ip), vehicle: saline with Tween-80
# [3] = dose: 50.0 mg/kg/injection, schedule: Q04DX003 (ip), vehicle: saline with Tween-80
# [4] = dose: 100.0 mg/kg/injection, schedule: Q04DX003 (ip), vehicle: saline with Tween-80
# [5] = dose: 100.0 mg/kg/injection, schedule: Q01DX009 (ip), vehicle: saline with Tween-80
# [6] = dose: 200.0 mg/kg/injection, schedule: Q01DX009 (ip), vehicle: saline with Tween-80
# [7] = dose: 200.0 mg/kg/injection, schedule: Q04DX003 (ip), vehicle: saline with Tween-80
# [8] = dose: 400.0 mg/kg/injection, schedule: Q01DX009 (ip), vehicle: saline with Tween-80
# [9] = dose: 400.0 mg/kg/injection, schedule: Q04DX003 (ip), vehicle: saline with Tween-80
# [10] = dose: 100.0 mg/kg/injection, schedule: Q01DX009 (ip), vehicle: Klucel (hydroxypropylcellulose) (HPC)
# [11] = dose: 100.0 mg/kg/injection, schedule: Q04DX003 (ip), vehicle: Klucel (hydroxypropylcellulose) (HPC)
# [12] = dose: 200.0 mg/kg/injection, schedule: Q01DX009 (ip), vehicle: Klucel (hydroxypropylcellulose) (HPC)
# [13] = dose: 200.0 mg/kg/injection, schedule: Q04DX003 (ip), vehicle: Klucel (hydroxypropylcellulose) (HPC)
# [14] = dose: 400.0 mg/kg/injection, schedule: Q01DX009 (ip), vehicle: Klucel (hydroxypropylcellulose) (HPC)
# [15] = dose: 400.0 mg/kg/injection, schedule: Q04DX003 (ip), vehicle: Klucel (hydroxypropylcellulose) (HPC)
# [16] = dose: 100.0 mg/kg/injection, schedule: Q01DX001 (ip), vehicle: carboxymethylcellulose (CMC)
# [17] = dose: 200.0 mg/kg/injection, schedule: Q01DX001 (ip), vehicle: carboxymethylcellulose (CMC)
# [18] = dose: 400.0 mg/kg/injection, schedule: Q01DX001 (ip), vehicle: carboxymethylcellulose (CMC)
smiles,measurement,setting,value
CCCCCCC(C(=O)OCC)P(=O)(OCC)OCC (stereo not given),T/C,[1],101 % of control
same,T/C,"dose: 150.0 mg/kg/injection, schedule: Q01DX001 (ip), vehicle: saline",94 % of control
same,T/C,"dose: 300.0 mg/kg/injection, schedule: Q01DX001 (ip), vehicle: saline",100 % of control
CN(C)CCCNCC(Cc1ccccc1)c1ccccc1 (stereo not given),T/C,"dose: 100.0 mg/kg/injection, schedule: Q04DX002 (ip), vehicle: saline",93 % of control
Clc1ccc(-c2ncc3cnccn23)cc1Cl,T/C,"dose: 25.0 mg/kg/injection, schedule: Q01DX009 (ip), vehicle: saline with Tween-80",92 % of control
same,T/C,[2],96 % of control
same,T/C,"dose: 50.0 mg/kg/injection, schedule: Q01DX009 (ip), vehicle: saline with Tween-80",96 % of control
same,T/C,[3],103 % of control
same,T/C,[4],94 % of control and 96 % of control
CNC(=S)Nc1ncn[nH]1,T/C,"dose: 100.0 mg/kg/injection, schedule: Q04DX003 (ip), vehicle: saline",94 % of control
same,T/C,"dose: 200.0 mg/kg/injection, schedule: Q04DX003 (ip), vehicle: saline",100 % of control
same,T/C,"dose: 400.0 mg/kg/injection, schedule: Q04DX003 (ip), vehicle: saline",86 % of control
O=C1NC2NC(=O)NC2N1 (stereo not given),T/C,[5],98 % of control
same,T/C,[4],112 % of control
same,T/C,[6],115 % of control
same,T/C,[7],98 % of control
same,T/C,[8],96 % of control
same,T/C,[9],101 % of control
O=C(C1C(c2ccccc2)C1c1ccccc1)N(CCCl)Cc1ccccc1 (stereo not given),T/C,"dose: 25.0 mg/kg/injection, schedule: Q04DX002 (ip), vehicle: Klucel (hydroxypropylcellulose) (HPC)",97 % of control
same,T/C,"dose: 50.0 mg/kg/injection, schedule: Q04DX002 (ip), vehicle: Klucel (hydroxypropylcellulose) (HPC)",87 % of control
same,T/C,"dose: 100.0 mg/kg/injection, schedule: Q04DX002 (ip), vehicle: Klucel (hydroxypropylcellulose) (HPC)",100 % of control
CCCCn1c(=O)cc(C(=O)O)c2ccccc21,T/C,[4],101 % of control
same,T/C,[7],101 % of control
same,T/C,[9],95 % of control
O=C(O)CSc1nc2ccccc2[nH]1,T/C,[4],100 % of control
same,T/C,[7],96 % of control
same,T/C,[9],88 % of control
CCOC(OCC)C(C)(C)CNC,T/C,"dose: 100.0 mg/kg/injection, schedule: Q01DX001 (ip), vehicle: saline sonified",90 % of control
same,T/C,"dose: 200.0 mg/kg/injection, schedule: Q01DX001 (ip), vehicle: saline sonified",101 % of control
same,T/C,"dose: 400.0 mg/kg/injection, schedule: Q01DX001 (ip), vehicle: saline sonified",107 % of control
CN(C)C=NCC1CCCO1 (stereo not given),T/C,"dose: 100.0 mg/kg/injection, schedule: Q01DX001 (ip), vehicle: saline",97 % of control
same,T/C,"dose: 200.0 mg/kg/injection, schedule: Q01DX001 (ip), vehicle: saline",90 % of control
same,T/C,"dose: 400.0 mg/kg/injection, schedule: Q01DX001 (ip), vehicle: saline",97 % of control
CCCCCCCCCC[P+](=O)CCCCCCCCCC,T/C,[2],92 % of control
same,T/C,[3],89 % of control
same,T/C,[7],89 % of control
same,T/C,[9],89 % of control
CN(c1ccccc1)P(=O)(N1CC1)N1CC1,T/C,"dose: 4.4 mg/kg/injection, schedule: Q01DX009 (ip), vehicle: carboxymethylcellulose (CMC)",117 % of control
same,T/C,"dose: 6.2 mg/kg/injection, schedule: Q01DX001 (ip), vehicle: carboxymethylcellulose (CMC)",111 % of control
same,T/C,"dose: 6.6 mg/kg/injection, schedule: Q01DX009 (ip), vehicle: carboxymethylcellulose (CMC)",152 % of control
same,T/C,"dose: 12.5 mg/kg/injection, schedule: Q01DX001 (ip), vehicle: carboxymethylcellulose (CMC)",104 % of control
same,T/C,"dose: 15.0 mg/kg/injection, schedule: Q01DX009 (ip), vehicle: carboxymethylcellulose (CMC)",105 % of control
same,T/C,"dose: 22.0 mg/kg/injection, schedule: Q01DX001 (ip), vehicle: carboxymethylcellulose (CMC)",123 % of control
same,T/C,"dose: 33.0 mg/kg/injection, schedule: Q01DX001 (ip), vehicle: carboxymethylcellulose (CMC)",159 % of control
same,T/C,"dose: 50.0 mg/kg/injection, schedule: Q01DX001 (ip), vehicle: carboxymethylcellulose (CMC)",115 % of control
same,T/C,"dose: 75.0 mg/kg/injection, schedule: Q01DX001 (ip), vehicle: carboxymethylcellulose (CMC)",102 % of control
Nc1ncnc(N)c1NC(=O)c1ccc(OCCOc2ccccc2)c(Cl)c1,T/C,[2],89 % of control
same,T/C,[3],93 % of control
same,T/C,[4],98 % of control
O=C1NC(=O)/C(=C/c2ccccc2)N1,T/C,[10],96 % of control
same,T/C,[11],104 % of control
same,T/C,[12],98 % of control
same,T/C,[13],96 % of control
same,T/C,[14],102 % of control
same,T/C,[15],96 % of control
C#CCSC(=S)NNc1ccccc1,T/C,[5],95 % of control
same,T/C,[4],101 % of control
same,T/C,[6],97 % of control
same,T/C,[7],97 % of control
same,T/C,[9],93 % of control
c1ccc(CNCCOB(OCCNCc2ccccc2)OCCNCc2ccccc2)cc1,T/C,[10],94 % of control
same,T/C,[11],98 % of control
same,T/C,[12],94 % of control
same,T/C,[13],111 % of control
same,T/C,[14],97 % of control
same,T/C,[15],95 % of control
Cc1cccc(NC(=O)CSc2cc(Cl)c(Cl)cc2Cl)c1,T/C,"dose: 100.0 mg/kg/injection, schedule: Q01DX001 (ip), vehicle: saline with Tween-80",93 % of control
same,T/C,"dose: 200.0 mg/kg/injection, schedule: Q01DX001 (ip), vehicle: saline with Tween-80",90 % of control
same,T/C,"dose: 400.0 mg/kg/injection, schedule: Q01DX001 (ip), vehicle: saline with Tween-80",87 % of control
N#CCCC1CCCCC1=O (stereo not given),T/C,"dose: 75.0 mg/kg/injection, schedule: Q01DX001 (ip), vehicle: other",97 % of control
same,T/C,[5],94 % of control
same,T/C,[4],98 % of control
same,T/C,"dose: 150.0 mg/kg/injection, schedule: Q01DX001 (ip), vehicle: other",100 % of control
same,T/C,[6],96 % of control
same,T/C,[7],96 % of control
same,T/C,"dose: 300.0 mg/kg/injection, schedule: Q01DX001 (ip), vehicle: other",100 % of control
same,T/C,[9],102 % of control
c1ccc(Cn2ccnc2)cc1,T/C,"dose: 3.12 mg/kg/injection, schedule: Q01DX009 (ip), vehicle: water",106 % of control
same,T/C,"dose: 6.25 mg/kg/injection, schedule: Q01DX009 (ip), vehicle: water",117 % of control
same,T/C,"dose: 12.5 mg/kg/injection, schedule: Q01DX009 (ip), vehicle: water",107 % of control
same,T/C,"dose: 25.0 mg/kg/injection, schedule: Q01DX009 (ip), vehicle: water",104 % of control and 108 % of control
same,T/C,"dose: 50.0 mg/kg/injection, schedule: Q01DX009 (ip), vehicle: water",96 % of control
same,T/C,[1],103 % of control
O=C(N/N=C/c1ccccc1O)C(O)(c1ccccc1)c1ccccc1,T/C,[16],101 % of control
same,T/C,[17],97 % of control
same,T/C,[18],97 % of control
NNC(=O)c1nc(N)n[nH]1,T/C,[5],98 % of control
same,T/C,[6],95 % of control
same,T/C,[8],109 % of control
CC1(C)CC(=O)c2c(cc3oc(=O)ccc3c2O)O1,T/C,[11],102 % of control
same,T/C,[13],105 % of control
same,T/C,[15],98 % of control
CCSC(SCC)C(SCC)C(OC(=O)c1ccccc1)C(OC(=O)c1ccccc1)C(COC(=O)c1ccccc1)OC(=O)c1ccccc1 (stereo not given),T/C,[16],114 % of control
same,T/C,[17],112 % of control
same,T/C,[18],93 % of control
